Laboratory results published in patent US20100104661A1, “DISCONTINUOUS METHODS OF TREATING CANCER” (priority 2006, published 2010).

Columns and labels:
[1] = tested on: node-positive breast cancer; conditions: adjuvant, sequentially to doxorubicin-containing chemotherapy; total population of patients with receptor-positive and receptor-negative tumors; cited from earlier work
[2] = tested on: AIDS-related Kaposi's sarcoma; conditions: 135 mg/m^2 every 3 weeks versus 100 mg/m^2 every 2 weeks; cited from earlier work
[3] = tested on: 22Rv1 prostate tumor xenografts; test: 22Rv1 prostate tumor xenograft, first experiment (lonafarnib 3.5 days on/3.5 days off, docetaxel once weekly); format: in vivo, male athymic nude mice; conditions: single-agent docetaxel 20 mpk i.p. once weekly; after 3 weeks (21 days)
Protocol: (§1) Intermittent dosing of lonafarnib at 60 mpk BID around the administration of docetaxel was tested in two experiments using the 22Rv1 androgen-independent prostate cancer xenograft model. In both experiments 22Rv1 prostate tumor xenografts were grown in male athymic nude mice. When tumor volumes were approximately 100 mm^3, the animals were randomized (n=10 per treatment group) for grouping. […] In addition, tumor regressions were observed when intermittent lonafarnib was combined with docetaxel.
In the first experiment (see FIG. 1) male mice (n=10 per treatment group) bearing 22Rv1 tumor xenografts were treated with lonafarnib administered at either 30 mpk BID continuously or 60 mpk BID intermittently (3.5 days on/3.5 days off). Docetaxel was administered at 20 mpk once weekly after the fourth dose of lonafarnib. Tumor volumes were measured twice weekly. After 3 weeks (21 days) of treatment, single-agent docetaxel inhibited 22Rv1 tumor growth by 66%. Continuous treatment with single-agent lonafarnib at 30 mpk BID inhibited tumor growth by 85% and intermittent dosing of single-agent lonafarnib at 60 mpk BID inhibited tumor growth by 80%. When combined with weekly administration of docetaxel, continuous treatment with 30 mpk BID lonafarnib caused 22Rv1 tumors to regress by 23%. However, when combined with docetaxel, intermittent lonafarnib (60 mpk BID) caused the tumors to regress by 46%. […]

[4] = tested on: NSCLC; conditions: 100 mg/m^2 in patients previously treated with chemotherapy; cited from earlier work
[5] = tested on: 22Rv1 prostate tumor xenografts; test: 22Rv1 prostate tumor xenograft, second experiment (lonafarnib 5 days on/5 days off, docetaxel once every 10 days); format: in vivo, male athymic nude mice; conditions: single-agent docetaxel 20 mpk i.p. once every 10 days; after 24 days
Protocol: as §1
The second experiment (see FIG. 3) was also performed with male mice (n=10 per treatment group) bearing 22Rv1 prostate tumor xenografts that were approximately 100 mm^3 in volume. Lonafarnib was administered at 30 mpk BID continuously or 60 mpk BID intermittently (5 days on/5 days off). Docetaxel was administered at 20 mpk once every 10 days after the second dose of lonafarnib. After 24 days of treatment, single-agent docetaxel inhibited 22Rv1 tumor growth by 78%. Continuous treatment with single-agent lonafarnib at 30 mpk BID inhibited tumor growth by 68% and intermittent dosing of single-agent lonafarnib at 60 mpk BID inhibited tumor growth by 78%. When combined with docetaxel, continuous treatment with 30 mpk BID lonafarnib caused 22Rv1 tumors to regress by 10%. However, when combined with docetaxel, intermittent lonafarnib (60 mpk BID) caused the tumors to regress by 37%. […]

CC(=O)O[C@H]1C(=O)[C@@]2(C)[C@H]([C@H](OC(=O)c3ccccc3)[C@]3(O)C[C@H](OC(=O)[C@H](O)[C@@H](NC(=O)c4ccccc4)c4ccccc4)C(C)=C1C3(C)C)[C@]1(OC(C)=O)CO[C@@H]1C[C@@H]2O [Taxol, paclitaxel]
effect on disease-free and overall survival [1]: overall favorable effect on disease-free and overall survival
toxicity of dosing schedules [2]: more toxic than the latter

CC(=O)O[C@@]12CO[C@@H]1C[C@H](O)[C@@]1(C)C(=O)[C@H](O)C3=C(C)[C@@H](OC(=O)[C@H](O)[C@@H](NC(=O)OC(C)(C)C)c4ccccc4)C[C@@](O)([C@@H](OC(=O)c4ccccc4)[C@H]21)C3(C)C [docetaxel]
inhibition of 22Rv1 tumor growth [3]: 66%
toxicity at higher dose [4]: associated with increased hematologic toxicity, infection, and treatment related mortality
inhibition of 22Rv1 tumor growth [5]: 78%
